Values joined by “and” are separate entries in the source; they are usually repeats but may differ in a detail not shown here. Identical values can stand only once.
Assays:
Type in all cases: in vivo
HBV genotype C [1] = experiment: Serum HBV DNA levels in HBV-infected humanized FRG model mice
Source text: (§1) For this study, Male FRG® (genotype Fah−/−/Rag2−/−/Il2rg−/− triple knockout mice on a C57BL/6 background (Yecuris) were transplanted with human hepatocytes when they were 1-2 months old. The human hepatocytes were allowed to repopulate the liver for approximately 6 months with periodic NTBC treatment to discourage growth of mouse hepatocytes. At 9 months of age the mice were given an intravenous inoculation of 4×10^8 genomes/kg HBV genotype C, which infected the human hepatocytes. After 2-3 months, serum HBV DNA levels reached a plateau indicating the human hepatocytes were maximally infected (mouse hepatocytes cannot be infected by HBV). Mice were one year old at the start of treatment with HBV RNAi agents, thus nearing the end of their life span.
(§2) Pre-treatment serum samples were taken on day −10 and day −3. Beginning on day 1, each mouse was administered an oral daily gavage with 0.01 mg/kg Entecavir dissolved in water to inhibit HBV replication. Daily dosing of Entecavir continued until the day mice were euthanized. Entecavir administration was expected to reduce serum HBV DNA in chronically infected human patients, but not reduce HBsAg.
(§3) Each mouse was also given a subcutaneous administration of 100 μl per 20 grams body weight containing the amount of HBV RNAi agent(s) formulated in phosphate buffered saline, or an equal volume of phosphate buffered saline without an HBV RNAi agent, on day 1 and on day 29 (if still alive on day 29), pursuant to the schedule as set forth in Table 47, directly above. […] The injections were performed between the skin and muscle (i.e. subcutaneous injections) into the loose skin over the neck and shoulder area.
Additionally, serum HBV DNA levels were determined from serum samples collected on days −10, −3, 8, 15, 22, 29, 36, and 40, pursuant to the procedure set forth in Example 2, above.

HBV genotype C [2] = experiment: Serum HBsAg levels in HBV-infected humanized FRG model mice; conditions: Group A: daily oral 0.01 mg/kg Entecavir, PBS (no RNAi agent), individual mouse
Source text: as §1, §2, §3
Serum was collected on day 8, day 15, day 22, day 29, day 36, and day 40 and serum Hepatitis B surface antigen (HBsAg) levels were determined pursuant to the procedure set forth in Example 2, above.

Hepatitis B Virus (HBV) [3] = experiment: Serum HBsAg levels in pHBV model mice (ELISA); design: key to Average HBsAg levels normalized to pre-treatment (day −1) and PBS control / Average HBsAg levels normalized to pre-treatment and PBS control: fraction of pre-treatment level, relative to PBS control mean; conditions: for Average HBsAg normalized to pre-treatment and PBS control: 2.0 mg/kg, single s.c. injection on day 1
Source text: (§4) Six to eight-week-old female NOD.CB17-Prkdscid/NcrCrl (NOD-SCID) mice were transiently transfected in vivo with MC-HBV1.3 by hydrodynamic tail vein injection (Yang P L et al. “Hydrodynamic injection of viral DNA: a mouse model of acute hepatitis B virus infection,” PNAS USA 2002 Vol. 99: p. 13825-13830), administered 30 to 45 days prior to administration of an HBV RNAi agent or control. MC-HBV1.3 is a plasmid-derived minicircle that contains the same terminally redundant human hepatitis B virus sequence HBV1.3 as in plasmid pHBV1.3 and in the HBV1.3.32 transgenic mice (GenBank accession #V01460) (Guidotti L G et al., “High-level hepatitis B virus replication in transgenic mice,” J Virol 1995 Vol. 69, p 6158-6169.). 5 or 10 μg MC-HBV1.3 in Ringer's Solution in a total volume of 10% of the animal's body weight was injected into mice via tail vein to create pHBV model of chronic HBV infection. The solution was injected through a 27-gauge needle in 5-7 seconds as previously described (Zhang G et al., “High levels of foreign gene expression in hepatocytes after tail vein injection of naked plasmid DNA.” Human Gene Therapy 1999 Vol. 10, p 1735-1737.). At pre-dose (either day 1 pre-dose, day −1, or day −2), Hepatitis B surface antigen (HBsAg) HBsAg expression levels in serum were measured by ELISA and the mice were grouped according to average HBsAg expression levels.
(§5) HBV expression levels were normalized to pre-administration expression levels and to control mice injected with phosphate buffered saline (“PBS”).
Mice were anesthetized with 2-3% isoflurane and blood samples were collected from the submandibular area into serum separation tubes (Sarstedt AG & Co., Nümbrecht, Germany). Blood was allowed to coagulate at ambient temperature for 20 min. The tubes were centrifuged at 8,000×g for 3 min to separate the serum and stored at 4° C.
Serum was collected and diluted 10 to 8000-fold in PBS containing 5% nonfat dry milk. […] HBsAg levels were determined with a GS HBsAg EIA 3.0 kit (Bio-Rad Laboratories, Inc., Redmond, Wash.) as described by the manufacturer. Recombinant HBsAg protein, ayw subtype, also diluted in nonfat milk in PBS, was used as a primary standard (Aldevron).
HBsAg expression for each animal was normalized to the control group of mice injected with PBS in order to account for the non-treatment related decline in expression of MC-HBV1.3. First, the HBsAg level for each animal at a time point was divided by the pre-treatment level of expression in that animal in order to determine the ratio of expression “normalized to pre-treatment”. Expression at a specific time point was then normalized to the control group by dividing the “normalized to pre-treatment” ratio for an individual animal by the average “normalized to pre-treatment” ratio of all mice in the normal PBS control group.

Hepatitis B Virus (HBV) [4] = experiment: Serum HBV DNA levels in pHBV model mice (qPCR); conditions: 0.8 mg/kg, injection on day 1 and day 22, Example 16
Source text: as §4, §5
Equal volumes of serum from mice in a group or subgroup were pooled to a final volume of 100 μL. DNA was isolated from serum samples using the QIAamp MinElute Virus Spin Kit (Qiagen, Valencia, Calif.) following the manufacturer's instructions. Sterile 0.9% saline was added to each sample to a final volume of 200 μL. Serum samples were added to tubes containing buffer and protease. Carrier RNA was added to aid in the isolation of small amounts of DNA. […] After incubating 15 min at 56° C., nucleic acids were precipitated from the lysates with ethanol and the entire solution applied to a column. After washing, the samples were eluted into a volume of 50 μL Buffer AVE.
The number of copies of HBV genomes in DNA isolated from the pHBV mouse model serum was determined by qPCR. Plasmid pSEAP-HBV353-777, encoding a short segment of the HBV genome within the S gene (bases 353-777 of GenBank accession #V01460), was used to create a six log standard curve. Samples with recovery of DNA below 2 standard deviations from the average, based on detection of pHCR/UbC-SEAP were omitted. TaqMan chemistry-based primers and probes with fluor/ZEN/IBFQ are utilized.
qPCR assays were performed on a 7500 Fast or StepOne Plus Real-Time PCR system (Life Technologies). For evaluation of HBV DNA in serum, DNA was isolated from singlet or duplicate purification steps from pooled group serum samples. Quantitations of HBV DNA and recovery control plasmid were determined by qPCR reactions performed in triplicate. The probes to quantitate HBV and pHCR/UbC-SEAP were included in each reaction.

Hepatitis B Virus (HBV) [5] = experiment: Serum HBeAg levels in pHBV model mice (ELISA); conditions: 0.8 mg/kg, injection on day 1 and day 22, Example 16
Source text: as §4, §5
HBeAg analysis was performed with the HBeAg enzyme linked immunosorbent assay (ELISA) as described by the manufacturer (DiaSorin) using serum diluted 4- to 20-fold in 5% nonfat dry milk. The amount of antigen was determined in the linear range of the assay and quantitated against HBeAg protein standards (Fitzgerald Industries International, catalog #30-AH18, Acton, Mass.).
HBeAg expression for each animal was normalized to the control group of mice injected with PBS in order to account for the non-treatment related decline in expression of MC-HBV1.3. For evaluation of HBeAg in serum, HBeAg is analyzed from pooled group or subgroup serum samples. First, the HBeAg level for each pooled group or subgroup was divided by the pre-treatment level of expression in the same group or subgroup in order to determine the ratio of expression “normalized to pre-treatment”. Expression at a specific time point was then normalized to the control group by dividing the “normalized to pre-treatment” ratio for a group or subgroup by the average “normalized to pre-treatment” ratio of all samples from the normal PBS control group.

Compound: C=C1[C@H](CO)[C@@H](O)C[C@@H]1n1cnc2c(=O)[nH]c(N)nc21 [Entecavir]
- viral replication (serum HBV DNA) (HBV genotype C [1]; Example 18, 0.01 mg/kg oral daily gavage, absence and presence of HBV RNAi agents): reduced viral replication
- Serum HBV DNA levels normalized to the average of pre-treatment day −10 and day −3, Day 8 (HBV genotype C [1]; Group A: daily oral 0.01 mg/kg Entecavir, PBS (no RNAi agent), individual mouse, Day 8): 0.072 and 0.130
- Serum HBV DNA levels normalized to the average of pre-treatment day −10 and day −3, Day 15 (HBV genotype C [1]; Group A: daily oral 0.01 mg/kg Entecavir, PBS (no RNAi agent), individual mouse, Day 15): 0.038 and 0.075
- Serum HBV DNA levels normalized to the average of pre-treatment day −10 and day −3, Day 22 (HBV genotype C [1]; Group A: daily oral 0.01 mg/kg Entecavir, PBS (no RNAi agent), individual mouse, Day 22): 0.015
- Serum HBV DNA levels normalized to the average of pre-treatment day −10 and day −3, Day 29 (HBV genotype C [1]; Group A: daily oral 0.01 mg/kg Entecavir, PBS (no RNAi agent), individual mouse, Day 29): 0.027
- Serum HBV DNA levels normalized to the average of pre-treatment day −10 and day −3, Day 36 (HBV genotype C [1]; Group A: daily oral 0.01 mg/kg Entecavir, PBS (no RNAi agent), individual mouse, Day 36): 0.060
- HBsAg levels normalized to pre-treatment (day −3), Day 8 (HBV genotype C [2]; Day 8): 0.830 and 1.303
- HBsAg levels normalized to pre-treatment (day −3), Day 15 (HBV genotype C [2]; Day 15): 0.828 and 1.328
- HBsAg levels normalized to pre-treatment (day −3), Day 22 (HBV genotype C [2]; Day 22): 0.932
- HBsAg levels normalized to pre-treatment (day −3), Day 29 (HBV genotype C [2]; Day 29): 0.858
- HBsAg levels normalized to pre-treatment (day −3), Day 36 (HBV genotype C [2]; Day 36): 1.107

Compound: AD05070: HBV RNAi agent duplex AM06606-AS/AM06605-SS (antisense UACCAAUUUAUGCCUACAGCG; sense CGCUGUAGGCAUAAAUUGGUA; chemistry not fully specified)
- Average HBsAg levels normalized to pre-treatment and PBS control (Hepatitis B Virus (HBV) [3]; Day 8, 0.8 mg/kg, injection on day 1 and day 22, Example 16): 0.446 ± 0.143
- Average HBsAg levels normalized to pre-treatment and PBS control (Hepatitis B Virus (HBV) [3]; Day 8, 0.8 mg/kg, single s.c. injection day 1, Example 8): 0.355 ± 0.099 and 0.271 ± 0.058
- Average HBsAg normalized to pre-treatment and PBS control (Hepatitis B Virus (HBV) [3]; Day 8, Example 15): 0.081 ± 0.026
- Average HBsAg levels normalized to pre-treatment and PBS control (Hepatitis B Virus (HBV) [3]; Day 14, 0.8 mg/kg, single s.c. injection day 1, Example 8): 0.366 ± 0.069 and 0.334 ± 0.060
- Average HBsAg levels normalized to pre-treatment and PBS control (Hepatitis B Virus (HBV) [3]; Day 14, 4.0 mg/kg, single s.c. injection day 1, Example 8): 0.069 ± 0.039 and 0.079 ± 0.047
- Average HBsAg levels normalized to pre-treatment and PBS control (Hepatitis B Virus (HBV) [3]; Day 15, 0.8 mg/kg, injection on day 1 and day 22, Example 16): 0.376 ± 0.120
- Average HBsAg normalized to pre-treatment and PBS control (Hepatitis B Virus (HBV) [3]; Day 15, Example 15): 0.127 ± 0.031
- Average HBsAg levels normalized to pre-treatment and PBS control (Hepatitis B Virus (HBV) [3]; Day 21, 0.8 mg/kg, single s.c. injection day 1, Example 8): 0.464 ± 0.055
- Average HBsAg levels normalized to pre-treatment and PBS control (Hepatitis B Virus (HBV) [3]; Day 21, 4.0 mg/kg, single s.c. injection day 1, Example 8): 0.145 ± 0.082
- Average HBsAg levels normalized to pre-treatment and PBS control (Hepatitis B Virus (HBV) [3]; Day 22, 0.8 mg/kg, injection on day 1 and day 22, Example 16): 0.474 ± 0.149
- Average HBsAg normalized to pre-treatment and PBS control (Hepatitis B Virus (HBV) [3]; Day 22, Example 15): 0.223 ± 0.057
- Average HBsAg levels normalized to pre-treatment and PBS control (Hepatitis B Virus (HBV) [3]; Day 28, 0.8 mg/kg, single s.c. injection day 1, Example 8): 0.624 ± 0.053
- Average HBsAg levels normalized to pre-treatment and PBS control (Hepatitis B Virus (HBV) [3]; Day 28, 4.0 mg/kg, single s.c. injection day 1, Example 8): 0.135 ± 0.061
- Average HBsAg levels normalized to pre-treatment and PBS control (Hepatitis B Virus (HBV) [3]; Day 29, 0.8 mg/kg, injection on day 1 and day 22, Example 16): 0.338 ± 0.123
- Average HBsAg normalized to pre-treatment and PBS control (Hepatitis B Virus (HBV) [3]; Day 29, Example 15): 0.330 ± 0.112
- Average HBsAg normalized to pre-treatment and PBS control (Hepatitis B Virus (HBV) [3]; Day 36, Example 15): 0.472 ± 0.121
- Average HBsAg normalized to pre-treatment and PBS control (Hepatitis B Virus (HBV) [3]; Day 43, Example 15): 0.515 ± 0.126
- Average HBsAg normalized to pre-treatment and PBS control (Hepatitis B Virus (HBV) [3]; Day 50, Example 15): 0.689 ± 0.167
- knockdown of HBsAg compared to PBS control (Hepatitis B Virus (HBV) [3]; Example 15, administered alone or in combination with AD04872, across each of the time points measured): significant knockdown of HBsAg
- Average Serum HBV DNA levels normalized to pre-treatment and PBS control (Hepatitis B Virus (HBV) [4]; Day 8): 1.124 ± 0.142
- Average Serum HBV DNA levels normalized to pre-treatment and PBS control (Hepatitis B Virus (HBV) [4]; Day 15): 0.742 ± 0.127
- Average Serum HBV DNA levels normalized to pre-treatment and PBS control (Hepatitis B Virus (HBV) [4]; Day 22): 0.807 ± 0.192
- Average HBeAg levels normalized to pre-treatment and PBS control (Hepatitis B Virus (HBV) [5]; Day 8): 0.634
- Average HBeAg levels normalized to pre-treatment and PBS control (Hepatitis B Virus (HBV) [5]; Day 15): 0.594 ± 0.082
- Average HBeAg levels normalized to pre-treatment and PBS control (Hepatitis B Virus (HBV) [5]; Day 22): 0.840 ± 0.152
- Average HBeAg levels normalized to pre-treatment and PBS control (Hepatitis B Virus (HBV) [5]; Day 29): 0.271 ± 0.029
